Data taken from US20220389009A1, “SUBSTITUTED 1,6-NAPHTHYRIDINE INHIBITORS OF CDK5” (Goldfinch Bio, Inc., priority 2019, published 2022).

Tests used:
CDK5/p25 = CDK5/p25 (Homo sapiens, UniProt Q00535); assay: CDK5 mobility shift assay (enzymatic activity of CDK5/p25); format: biochemical; conditions: for IC50: 0.154 nM CDK5/p25, FL peptide 29, 60 min at room temperature, read-out: CDK5 IC50; for CDK5/CDK2 specificity: fold more active against CDK5 than CDK2
Outline: (§1)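 Carna CDK5/p25 (0.154 nM) or CDK2/CycA2 (1.25 nM) was preincubated 30 min with compound, ATP ([…] for CDK5; 37 μM for CDK2) and 10 mM MgCl2 in HEPES pH 7.5. The reaction was started with 1.5 μM FL peptide (29 for CDK5, 18 for CDK2) and run 60 min (CDK5) or 120 min (CDK2) at room temperature. Product was read by mobility shift, with IC50 from a 4-parameter fit.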

CDK2/CycA2 = CDK2/CycA2 (Homo sapiens, UniProt P24941); assay: CDK2 mobility shift assay (enzymatic activity of CDK2/CycA2); format: biochemical; conditions: 1.25 nM CDK2/CycA2, 37 μM ATP, FL Peptide 18, 120 min at room temperature; read-out: CDK2 IC50
Outline: as §1

Sequence of CDK5/p25 (Q00535 whole entry): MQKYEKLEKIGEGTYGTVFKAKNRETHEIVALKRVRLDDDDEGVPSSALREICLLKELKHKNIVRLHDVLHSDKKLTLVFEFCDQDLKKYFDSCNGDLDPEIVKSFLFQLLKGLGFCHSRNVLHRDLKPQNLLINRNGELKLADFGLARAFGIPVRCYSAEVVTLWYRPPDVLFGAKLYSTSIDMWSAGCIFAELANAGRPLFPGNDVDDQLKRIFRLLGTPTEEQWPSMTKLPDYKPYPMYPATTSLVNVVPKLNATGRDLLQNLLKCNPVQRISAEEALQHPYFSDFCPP
Sequence of CDK5/p25 (Q15078 99-307 partner limits assumed): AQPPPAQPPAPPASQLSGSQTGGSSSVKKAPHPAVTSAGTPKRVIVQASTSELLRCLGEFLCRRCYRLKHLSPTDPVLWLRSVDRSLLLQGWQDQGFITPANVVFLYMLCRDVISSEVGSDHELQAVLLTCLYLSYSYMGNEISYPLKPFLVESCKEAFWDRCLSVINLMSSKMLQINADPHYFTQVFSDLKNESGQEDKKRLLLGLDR

Compound | IC50 (CDK5/p25) [nM] | CDK5/CDK2 specificity (CDK5/p25) | IC50 (CDK2/CycA2) [nM]
CN1CCC(S(=O)(=O)c2ccc3cnc(Nc4ccc(N5CCNC(=O)C5)cc4)cc3n2)CC1 [Compound 305] | < 10 | ++ (greater than 10-fold and less than or equal to 100-fold more active against CDK5 than CDK2) | 10 to 100
CN1CCC(S(=O)(=O)c2ccc3cnc(Nc4ccc(N(C)C)cc4)cc3n2)CC1 [Compound 306] | < 10 | +++ (greater than 100-fold more active against CDK5 than CDK2) | 10 to 100
CN1CCC(S(=O)(=O)c2ccc3cnc(Nc4ccc(N5CCOC5=O)cc4)cc3n2)CC1 [Compound 307] | < 10 | ++ (greater than 10-fold and less than or equal to 100-fold more active against CDK5 than CDK2) | 10 to 100
CC1CCN(c2ccc(Nc3cc4nc(S(=O)(=O)C5CCN(C)CC5)ccc4cn3)cc2)CC1 [Compound 308] | < 10 | +++ (greater than 100-fold more active against CDK5 than CDK2) | 100 to 1000
CN1CCC(N(Cc2cn[nH]c2)c2ccc3cnc(Nc4ccc(-n5ccc(CO)n5)cc4F)cc3n2)CC1 [Compound 309, [1-[3-fluoro-4-([2-[(1-methylpiperidin-4-yl) (1H-pyrazol-4-ylmethyl)amino]-1,6-naphthyridin-7-yl]amino)phenyl]pyrazol-3-yl]methanol] | 10 to 100 | ++ (greater than 10-fold and less than or equal to 100-fold more active against CDK5 than CDK2) | > 1000
COc1ccc(-c2ccc(Nc3cc4nc(C(C)C5CCN(C)CC5)ccc4cn3)c(F)c2)cc1 (stereo not drawn) [Compound 310] | 10 to 100 | ++ (greater than 10-fold and less than or equal to 100-fold more active against CDK5 than CDK2) | > 1000
CN1CCC(C2(c3ccc4cnc(Nc5ccc(-n6ccc(CO)n6)cc5F)cc4n3)CC2)CC1 [Compound 312, [1-[3-fluoro-4-([2-[1-(1-methylpiperidin-4-yl)cyclopropyl]-1,6-naphthyridin-7-yl]amino)phenyl]pyrazol-3-yl]methanol] | 10 to 100 | ++ (greater than 10-fold and less than or equal to 100-fold more active against CDK5 than CDK2) | > 1000
CC(c1ccc2cnc(Nc3ccc(-c4cccnc4)cc3F)cc2n1)C1CCN(C)CC1 (stereo not drawn) [Compound 314] | 10 to 100 | ++ (greater than 10-fold and less than or equal to 100-fold more active against CDK5 than CDK2) | > 1000
OCc1ccn(-c2ccc(Nc3cc4nc(C5(C6CCNCC6)CC5)ccc4cn3)c(F)c2)n1 [Compound 316, [1-[3-fluoro-4-([2-[1-(piperidin-4-yl)cyclopropyl]-1,6-naphthyridin-7-yl]amino)phenyl]pyrazol-3-yl]methanol] | 10 to 100 | ++ (greater than 10-fold and less than or equal to 100-fold more active against CDK5 than CDK2) | > 1000
CN1CCC(S(=O)(=O)c2ccc3cnc(Nc4ccc(-n5ccc(C(N)=O)n5)cc4F)cc3n2)CC1 [Compound 317, 1-(3-fluoro-4-[[2-(1-methylpiperidin-4-ylsulfonyl)-1,6-naphthyridin-7-yl]amino]phenyl)pyrazole-3-carboxamide] | < 10 | +++ (greater than 100-fold more active against CDK5 than CDK2) | 100 to 1000
CC(c1ccc2cnc(Nc3ccc(-c4cccnc4)cc3F)cc2n1)C1CCN(C)CC1 (stereo not drawn) [Compound 319] | < 10 | ++ (greater than 10-fold and less than or equal to 100-fold more active against CDK5 than CDK2) | 100 to 1000
COc1ccc(-c2ccc(Nc3cc4nc(C(C)C5CCN(C)CC5)ccc4cn3)c(F)c2)cc1 (stereo not drawn) [Compound 322] | < 10 | +++ (greater than 100-fold more active against CDK5 than CDK2) | 100 to 1000
O=S(=O)(c1ccc2cnc(Nc3ccc(-c4cccnc4)cc3F)cc2n1)C1CCN(CC2COC2)CC1 [Compound 323] | < 10 | +++ (greater than 100-fold more active against CDK5 than CDK2) | 100 to 1000
CC(c1ccc2cnc(Nc3ccc(-n4ccc(C(=O)O)n4)cc3F)cc2n1)C1CCN(C)CC1 (stereo not drawn) [Compound 324] | 10 to 100 | +++ (greater than 100-fold more active against CDK5 than CDK2) | > 1000
NC(=O)c1cccc(-c2ccc(Nc3cc4nc(S(=O)(=O)C5CCN(CC6COC6)CC5)ccc4cn3)c(F)c2)c1 [Compound 326] | < 10 | +++ (greater than 100-fold more active against CDK5 than CDK2) | 100 to 1000
CN1CCC(C(C)(O)c2ccc3cnc(Nc4ccc(-c5cccnc5)cc4F)cc3n2)CC1 (stereo not drawn) [Compound 327] | 100 to 1000 | ++ (greater than 10-fold and less than or equal to 100-fold more active against CDK5 than CDK2) | > 1000
COc1cc(-c2ccc(Nc3cc4nc(S(=O)(=O)C5CCN(CC6COC6)CC5)ccc4cn3)c(F)c2)ccn1 [Compound 328] | < 10 | +++ (greater than 100-fold more active against CDK5 than CDK2) | > 1000

Compound | IC50 (CDK5/p25) [nM] | CDK5/CDK2 specificity (CDK5/p25) | IC50 (CDK2/CycA2) [nM]
CN1CCC(C(C)(O)c2ccc3cnc(Nc4ccc(-c5cccnc5)cc4F)cc3n2)CC1 (stereo not drawn) [Compound 329] | < 10 | ++ (greater than 10-fold and less than or equal to 100-fold more active against CDK5 than CDK2) | 10 to 100
COc1cc(-c2ccc(Nc3cc4nc(C(C)(O)C5CCN(C)CC5)ccc4cn3)c(F)c2)ccn1 (stereo not drawn) [Compound 330] | > 1000 | ++ (greater than 10-fold and less than or equal to 100-fold more active against CDK5 than CDK2) | > 1000
COc1ccc(-c2ccc(Nc3cc4nc(S(=O)(=O)C5CCN(CC6COC6)CC5)ccc4cn3)c(F)c2)cc1 [Compound 331] | < 10 | ++ (greater than 10-fold and less than or equal to 100-fold more active against CDK5 than CDK2) | 100 to 1000
O=S(=O)(c1ccc2cnc(Nc3ccc(-n4cccn4)cc3F)cc2n1)C1CCN(CC2COC2)CC1 [Compound 332] | < 10 | +++ (greater than 100-fold more active against CDK5 than CDK2) | 100 to 1000
COc1cc(-c2ccc(Nc3cc4nc(C(C)C5CCN(C)CC5)ccc4cn3)c(F)c2)ccn1 (stereo not drawn) [Compound 333] | < 10 | +++ (greater than 100-fold more active against CDK5 than CDK2) | 100 to 1000
CNC(=O)c1ccn(-c2ccc(Nc3cc4nc(S(=O)(=O)C5CCN(CC6COC6)CC5)ccc4cn3)c(F)c2)n1 [Compound 334] | < 10 | ++ (greater than 10-fold and less than or equal to 100-fold more active against CDK5 than CDK2) | 100 to 1000
CN1CCC(C(C)(O)c2ccc3cnc(Nc4ccc(-c5cccc(C#N)c5)cc4F)cc3n2)CC1 (stereo not drawn) [Compound 335] | < 10 | ++ (greater than 10-fold and less than or equal to 100-fold more active against CDK5 than CDK2) | 10 to 100
COc1cccc(-c2ccc(Nc3cc4nc(S(=O)(=O)C5CCN(CC6COC6)CC5)ccc4cn3)c(F)c2)n1 [Compound 336] | < 10 | +++ (greater than 100-fold more active against CDK5 than CDK2) | 100 to 1000
CN1CCC(C(C)(O)c2ccc3cnc(Nc4ccc(-c5cccc(C#N)c5)cc4F)cc3n2)CC1 (stereo not drawn) [Compound 337] | 100 to 1000 | ++ (greater than 10-fold and less than or equal to 100-fold more active against CDK5 than CDK2) | > 1000
CN(C)C(=O)c1ccn(-c2ccc(Nc3cc4nc(S(=O)(=O)C5CCN(CC6COC6)CC5)ccc4cn3)c(F)c2)n1 [Compound 338] | < 10 | +++ (greater than 100-fold more active against CDK5 than CDK2) | 100 to 1000
COc1cc(-c2ccc(Nc3cc4nc(C(C)C5CCN(C)CC5)ccc4cn3)c(F)c2)ccn1 (stereo not drawn) [Compound 339] | 10 to 100 | ++ (greater than 10-fold and less than or equal to 100-fold more active against CDK5 than CDK2) | > 1000
CC(C)(O)c1ccn(-c2ccc(Nc3cc4nc(S(=O)(=O)C5CCN(CC6COC6)CC5)ccc4cn3)c(F)c2)n1 [Compound 340] | 10 to 100 | ++ (greater than 10-fold and less than or equal to 100-fold more active against CDK5 than CDK2) | > 1000
Cc1cccc(Nc2cc3nc(C(C)(O)C4CCN(C)CC4)ccc3cn2)c1 (stereo not drawn) [Compound 341] | < 10 | ++ (greater than 10-fold and less than or equal to 100-fold more active against CDK5 than CDK2) | 10 to 100
CN1CCC(C(C)(O)c2ccc3cnc(Nc4ccc(-c5cncnc5)cc4F)cc3n2)CC1 (stereo not drawn) [Compound 342] | < 10 | ++ (greater than 10-fold and less than or equal to 100-fold more active against CDK5 than CDK2) | 10 to 100
COC(=O)c1ccn(-c2ccc(Nc3cc4nc(C(O)C5CCN(C)CC5)ccc4cn3)c(F)c2)n1 (stereo not drawn) [Compound 344] | 100 to 1000 | ++ (greater than 10-fold and less than or equal to 100-fold more active against CDK5 than CDK2) | > 1000
CN1CCC([C@@](C)(O)c2ccc3cnc(Nc4ccccc4)cc3n2)CC1 [Compound 345, (1R)-1-(1-methylpiperidin-4-yl)-1-[7-(phenylamino)-1,6-naphthyridin-2-yl]ethanol] | < 10 | ++ (greater than 10-fold and less than or equal to 100-fold more active against CDK5 than CDK2) | 10 to 100
